# Assay results taken from paper PMC5372569, “A New Oleanolic Acid Derivative against CCl4-Induced Hepatic Fibrosis in Rats” (International Journal of Molecular Sciences, 2017).
# “And” between values parts separate entries of the source, which are not always exact repeats. Equal values may be shown once.
# Tests used:
# [1] = system: CCl4-induced liver fibrosis in rats; test: Histological assessment (H&E) of livers in CCl4-induced liver fibrosis; assay type: in vivo; conditions: nine weeks
# Procedure: (§1) After a two-week acclimation period, 52 rats were randomly divided into five groups (each group approximately consisted of ten rats). (1) Normal group: rats were fed with regular diet and distilled water and were injected intraperitoneally with olive oil (2 mL/kg body weight per day, i.p. twice per week) for nine weeks; (2) Model group: rats were feeding with the same quantity as the normal group and were injected with 40% CCl4/olive oil (2 mL/kg body weight, twice per week) for nine weeks to induce liver fibrosis; (3) Low-dose group: rats were fed with the same quantity as the normal group and were administered intraperitoneal injections with 40% CCl4/olive oil (2 mL/kg body weight, twice per week) and with a low dose (14 mg/kg body weight, once per day) Oxy-Di-OA treatment for nine weeks; (4) High-dose group: rats were fed with the same quantity as the normal group and were treated with 40% CCl4/olive oil (2 mL/kg body weight twice per week) and with a high dose (28 mg/kg body weight, once per day) Oxy-Di-OA treatment for nine weeks; (5) Positive control group: rats were fed with the same quantity as the normal group and were administered 40% CCl4/olive oil (2 mL/kg body weight, twice per week) and with bifendate (10.5 mg/kg body weight, once per day) for nine weeks.
# (§2) At 48 h after the final injection of CCl4, all rats were anaesthetized with chloral hydrate, and the blood samples were collected from the aorta abdominalis. The serum samples were obtained by centrifugation at 3000 rpm for 15 min to obtain the supernatant and were kept frozen at −80 °C until biochemical analysis. Livers and spleens were immediately removed, rinsed in ice-cold saline, and weighed. The data were used for calculating liver and spleen indices. Then a portion of each liver was fixed in 4% buffered formaldehyde, embedded in paraffin blocks, and stained with hematoxylin-eosin (H&E) for histological and biochemical analyses. The rest of the tissues were stored at −80 °C until required.
# TGF-β1 = test: Immunohistochemical staining of TGF-β1 in liver tissue, CCl4-induced liver fibrosis; assay type: in vivo; conditions: nine weeks, CCl4 rats
# Procedure: as §1
# Immunostaining was conducted as paraffin-embedded liver tissue sections of 5 µm thickness to determine the expression and distribution of TGF-β1 in the liver tissue of rats. Tissues were treated with 3% H2O2 in distilled water for 10 min to block endogenous peroxidase activity followed by another wash, and then blocked with 5% BSA blocking buffer for 20 min. Then, after endogenous peroxidase blockage, the sections were incubated with TGF-β1 primary antibody (1:50 dilution) at 4 °C overnight. The next day, they were washed three times with PBS (phosphate-buffered saline) and then incubated with HRP-labelled goat-anti-rabbit secondary antibodies at 37 °C for 30 min. […] The expression of TGF-β1 in liver tissues was analyzed under a light microscope (Olympus, Tokyo, Japan).
# [2] = system: CCl4-induced liver fibrosis in rats; test: Serum ALT and AST in CCl4-induced liver fibrosis; assay type: in vivo; conditions: mean ± SD
# Procedure: as §1, §2
# According to the corresponding manufacturer’s protocols, plasma samples were prepared after finishing animal experiments and determined using ALT and AST diagnostic kits. The ALT and AST enzyme activities were measured by the third affiliated hospital of Beijing University of Chinese Medicine (Beijing, China).
# [3] = system: CCl4-induced liver fibrosis in rats; test: Liver and spleen indices in CCl4-induced liver fibrosis; assay type: in vivo; conditions: mean ± SD
# Procedure: as §1, §2
# We used the percentage of the body weight to represent relative weights of the liver and spleen, respectively. The indices of liver and spleen were expressed as Wl/Wm and Ws/Wm, respectively. The Wl and Ws represented the average liver and spleen weight of each group, respectively, and Wm was the average rat body weight of each group.
# [4] = Acute toxicity assay via intraperitoneal injection; assay type: in vivo, Kunming mice; conditions: male, Kunming, mouse, in vivo, ip, mice, Käber assessment
# Procedure: (§3) According to previous studies, Oxy-Di-OA was further investigated for its approximate LD50 and 95% confidence interval (CIs) value in mice. Male Kunming mice, weighing 20 ± 2 g were randomly divided into eleven groups of six individuals matched by weight and size. The mice had fasted for 12 h, but water was allowed ad libitum before the acute toxicity experiments.
# (§4) The maximum suspended dose (900 mg/kg) of Oxy-Di-OA was prepared in bean oil solution. One group of mice was injected intraperitoneally with bean oil as a normal control. Then the other five groups of mice were given intraperitoneal injections of Oxy-Di-OA in doses of 178, 422, 600, 750, and 900 mg/kg, respectively. The mice were observed continuously for 1 h after such treatment and then intermittently for 4 h, and thereafter over a period of 24 h. The mice were further observed for up to seven days following treatment for any situations of poisoning and deaths and the latency of death. Some abnormal behaviors were recorded.
# (§5) The acute toxicity assay via intraperitoneal injection was evaluated by LD50 and 95% CIs which were calculated by Käber assessment.
# mice = test: Acute toxicity assay via intraperitoneal injection; assay type: in vivo, Kunming mice
# Procedure: as §3, §4, §5
# [5] = Acute toxicity assay via gavage; conditions: male, Kunming, mouse, in vivo; mice, gavage (oral administration), doses up to 2000 mg/kg
# Procedure: as §3
# One group of mice was orally administered bean oil as a normal control. Then the other four groups of mice were given gavage of Oxy-Di-OA in doses of 200, 500, 1000, and 2000 mg/kg, respectively. The mice were observed continuously for 1 h after such treatment and then intermittently for 4 h, and thereafter over a period of 24 h. The mice were further observed for up to seven days following treatment for any signs of toxicity, death, and the latency of death. Abnormal symptoms were recorded immediately.
# The acute toxicity test via gavage was evaluated by LD50.
# [6] = Pharmacokinetic study after single-dose oral administration (HPLC-UV); assay type: in vivo, SD rats; conditions: rats
# Procedure: The LC system is made up of an Agilent 1100 HPLC system (Agilent Corporation, USA) coupled with a reverse-phase Agilent TC-C18 analytical column (4.6 mm × 250 mm, 5 µm particle size). The column temperature set at 25 °C. The column used during the pharmacokinetic assay was eluted at a flow rate of 1 mL/min, and the solvent consisted of 98% methanol and 2% aqueous solution. The detection wavelength was 278 nm and the injection volume was 10 μL. Healthy SD rats had no access to food until 12 h after dose administration, while water was free to access throughout the experiments. To determine the drug concentrations and to calculate the pharmacokinetic parameters, blood was obtained from the ophthalmic vein and collected with heparinized microcentrifuge tubes. The plasma was separated by centrifuging the blood samples at 4000 rpm for 15 min. Plasma stored in a freezer at −20 °C was thawed at 4 °C before treatment. After that, 15 μL of IS (50.4 μg/mL) working solution was added to such a plasma sample (200 μL), followed by vortex-mixing for 1 min to obtain the mixture. Then we added 600 μL acetonitrile to the mixture and vortexed for 5 min. After that, the mixture was centrifuged at 12,000 rpm for 5 min at 4 °C. […] The residue was then reconstituted in 100 μL methanol, and stirred and vortexed for 1 min. The solution was centrifuged at 12,000 rpm for 5 min to obtain the supernatant. Finally, 10 μL of supernatant was injected into the HPLC system for further analysis. Oxy-Di-OA was dissolved in normal saline before using. Before administration of drug, six SD rats had no access to food overnight but water was allowed free access. A single dose (500 mg/kg) of Oxy-Di-OA solution was administered orally to rats. After that, the blood samples were collected with heparinized microcentrifuge tubes at 1, 2, 6, 8, 10, 12, 14, 16 and 20 h. Plasma was separated by centrifugation (4000 rpm, 10 min, and 15 °C) and kept at −20 °C until necessary.
# [7] = Stability of Oxy-Di-OA in rat plasma and processed samples; assay type: physicochemical
# Procedure: The stability of Oxy-Di-OA was investigated by analyzing the QC samples over three levels under different conditions, including −20 °C for 10 and 20 days (long-term stability), and room temperature for one day (short-term stability). In addition, the concentration of Oxy-Di-OA would be detected in the above samples to compare with the initial value in order to determine whether it has changed or not.
# HBV (Hepatitis B Virus) = system: HBV (Hepatitis B Virus); parameters: method as in PMID 27023498; conditions: previous studies; cited from earlier work
# [8] = high-dose group 28 mg/kg once per day
# [9] = low-dose group 14 mg/kg once per day
# [10] = dose 28 mg/kg (high dose), 28 mg/kg
# [11] = SD, rat, plasma, single oral dose 500 mg/kg, n = 6
# [12] = single oral dose 500 mg/kg, n = 6
# [13] = bifendate 10.5 mg/kg once per day
structure (smiles),measurement,setting,value
"CC1(C)CCC2(C(=O)O)CC[C@]3(C)C(=CC=C4[C@@]5(C)CCC(=O)C(C)(C)[C@@H]5CC[C@]43C)C2C1 (stereo partly shown) [Oxy-Di-OA, 3-oxours-oleana-9(11), 12-dien-28-oic acid]",histological examination of rat livers (H&E),[1]; [8],marked regression and alleviation in the abnormal areas
same,histological examination of rat livers (H&E),[1]; [9],moderate regression of morphological changes
same,expression of TGF-β1 (immunohistochemical staining),TGF-β1; [8],a lower expression of TGF-β1 compared to model group
same,expression of TGF-β1 (immunohistochemical staining),TGF-β1; [9],a lower expression of TGF-β1 compared to model group
same,ALT,[2]; dose 14 mg/kg,77.58 ± 39.58 U/L
same,AST,[2]; dose 14 mg/kg,122.00 ± 52.19 U/L
same,ALT,[2]; dose 28 mg/kg,67.06 ± 51.59 U/L
same,AST,[2]; dose 28 mg/kg,141.89 ± 71.57 U/L
same,Liver Index,[3]; dose 14 mg/kg,3.46 ± 0.38 %
same,Spleen Index,[3]; dose 14 mg/kg,0.24 ± 0.06 %
same,Liver Index,[3]; [10],"3.15% ± 0.36% and 3.15 ± 0.36 *^,# %"
same,Spleen Index,[3]; [10],0.26% ± 0.05% and 0.26 ± 0.05 %
same,LD50 at 7 days,[4]; read-out: 95% CIs of LD50,640 to 799 mg/kg
same,LD50 at 7 days,[4]; read-out: LD50,715 mg/kg
same,dose harmless for further in vivo study,mice,600 mg/kg
same,Death Rate,mice; 178 mg/kg,0%
same,Death Rate,mice; 422 mg/kg,0%
same,Death Rate,mice; 600 mg/kg,0%
same,Death Rate,mice; 750 mg/kg,67%
same,Death Rate,mice; 900 mg/kg,83%
same,symptoms observed,"mice; high dose, one hour after the experiment",slow movement and a decrease in aggressiveness
same,LD50 at 7 days,[5],> 2000 mg/kg
same,AUC(0-t),"[6]; SD, rat, plasma, po, 500 mg/kg, single oral dose 500 mg/kg, n = 6, read-out: AUClast (area under the concentration-time curve from t = 0 to the last time)",88020 ± 660 ng·h/mL
same,Cmax,[6]; [11],8180 ± 660 ng/mL
same,MRT,[6]; [11],9.48 ± 0.48 h
same,Tmax,"[6]; SD, rat, plasma, single oral dose 500 mg/kg, n = 6, read-out: Tmax (time to reach peak concentration)",10 ± 2.19 h
same,half-life,"[6]; SD, rat, plasma, single oral dose 500 mg/kg, n = 6, read-out: t1/2 (elimination half-life) (converted)",2.19 ± 0.71 h
same,CL,[6]; [12],92.9307 ± 16.544 mL/min/kg
same,Vz,[6]; [12],"18,290.17 ± 9453.59 mL/kg"
same,AUClast (area under the concentration-time curve from t = 0 to the last time),"[6]; single oral dose 500 mg/kg, n = 6, 500 mg/kg",90210 ± 15680 ng·h/mL
same,elimination half-life compared with oleanolic acid,[6]; oleanolic acid data ref 27,"longer elimination half-life than its parent compound, oleanolic acid"
same,stability in plasma biomatrix and processed samples,"[7]; freezing and thawing cycles, room temperature 24 h",stable
same,concentration relative to the initial concentration,"[7]; methanol solutions, room temperature for 24 h",97.46% to 100.17%
same,anti-HBV activity IC50,HBV (Hepatitis B Virus),3.13 µg/mL
same,"inhibition of the rebound of the viral replication rate, compared with lamivudine",HBV (Hepatitis B Virus),superior to the positive drug (Lamivudine)
same,inhibition rate of the secretion of HBsAg,HBV (Hepatitis B Virus),90.52% ± 1.78%
same,reduction rate of the secretion of HBeAg,HBV (Hepatitis B Virus),42.31% ± 3.53%
"COC(=O)c1cc(OC)c2c(c1-c1c(C(=O)OC)cc(OC)c3c1OCO3)OCO2 [Bifendate, bifendate, reference compound]",histological examination of rat livers (H&E),[1]; [13],notable alleviation in abnormal areas
same,expression of TGF-β1 (immunohistochemical staining),TGF-β1; [13],a low expression of TGF-β1
same,ALT,[2]; dose 10.5 mg/kg,54.54 ± 21.40 U/L
same,AST,[2]; dose 10.5 mg/kg,122.56 ± 39.18 U/L
same,Liver Index,[3]; dose 10.5 mg/kg,3.57 ± 0.34 %
same,Spleen Index,[3]; dose 10.5 mg/kg,0.24 ± 0.04 %
